Test results as given in patent publication US20090105301A1, “9A-SUBSTITUTED AZALIDES FOR THE TREATMENT OF MALARIA” (priority 2006, published 2009).
In brackets after ≈: the same amount, converted by molar mass. Counter-ions that a name gives are not always drawn.

How the values were obtained:
Format in all cases: cell-based, Plasmodium falciparum
[1] = system: P. falciparum D6 (CDC/Sierra Leone I, D-6); assay: In vitro screening protocol I, [3H]-hypoxanthine incorporation, D6; settings: Plasmodium falciparum; In vitro screening protocol I; P. falciparum D6; read-out: IC50 D6
Excerpt: (§1) Agents Chemother. 27 (4) (1985) 525-530). The system was limited to the assessment of the intrinsic activity against the erythrocytic asexual life cycle (blood schizontocides). Two Plasmodium falciparum clones from CDC/Indochina III (W-2) and CDC/Sierra Leone I (D-6) (Oduola A M, Weatherly N F, Bowdre J H, Desjardins R E. Plasmodium falciparum: cloning by single-erythrocyte micromanipulation and heterogeneity in vitro. Exp Parasitol. 66 (1) (1988) 86-95) were used for all assays. TM91C235, a multiple drug resistant isolate from Thailand (Antimicrob. Agents Chemother. 46 (8) (2002) 2627 and Antimicrob. Agents Chemother. 43 (3) (1999) 598-602), was used for the prescreening assay. W-2 is resistant to chloroquine, quinine, and pyrimethamine and susceptible to mefloquine. D-6 tends to be more resistant to mefloquine and susceptible to chloroquine, quinine, and pyrimethamine. All documents cited in this paragraph are incorporated by reference in their entirety.
(§2) All parasites were maintained in continuous long term cultures in RPMI-1640 medium supplemented with 6% washed human A positive (A+)(erythrocytes, 25 mM Hepes, […], and 10% heat inactivated A+ human plasma or ALBUMAX® (lipid-rich bovine serum albumin; Invitrogen, Carlsbad, Calif.). All cultures and assays were conducted at 37° C. under an atmosphere of 5% CO2 and 5% O2, with a balance of N2.
(§3) The prescreening assay uses TM91C235 diluted at a 0.4% parasitemia in a 1% hematocrit in folic acid free and p-aminobenzoic acid free media RPMI-1640 and ALBUMAX®. […] The compound is further diluted in folate free (FF) culture medium with ALBUMAX® for the first initial starting concentration. The rest of the stock drug solution was kept at −70° C. The isolate was preexposed, in duplicate, at three concentrations (25,000 ng/ml, 2,500 ng/ml, and […]) of the test compound for 48 hr in a 96-well microtiter plate (MTP) using the BIOMEK® 2000 automated laboratory workstation. Each MTP contains chloroquine as control to assess the relative activity of the compound and to monitor the response of TM91C235.
(§4) After the preincubation, [^3H]-hypoxanthine was added to each well of the MTP. (The assay relies on the incorporation of radiolabeled hypoxanthine by the parasites, which indicates reproduction, and inhibition of isotope incorporation was attributed to activity of known or candidate antimalarial drugs). After 72 hours of total incubation time, the MTP were frozen to lyse the erythrocytes and parasites. The parasite DNA was recovered by harvesting the lysate onto glass-fiber filter plates using a Packard FilterMate™ Cell Harvester. The radioactivity was counted on a Packard TopCount™ microplate scintillation counter.
(§5) The serial dilution assay was conducted using the same assay conditions and stock solution of the compound used for the preliminary screen, described above. Both the D-6 and the W-2 clones were used. The compounds were diluted two-fold over 11 different concentration ranges with a starting concentration that was based on the preliminary screen. For each drug, the concentration response profile was determined and 50% inhibitory concentrations (IC50) were determined by using a non-linear, logistic dose response analysis program. […] For each assay, the IC50 for each clone was determined against the known antimalarials chloroquine and mefloquine. These control values established the compound's relative parasite susceptibility profile compared to known antimalarials. […]

P. falciparum TM91C235 = assay: In vitro screening protocol I, [3H]-hypoxanthine incorporation, TM91C235; settings: Plasmodium falciparum, In vitro screening protocol I; P. falciparum TM91C235; read-out: IC50 TM91C235
Excerpt: as §1, §2, §3, §4, §5

[2] = system: P. falciparum W2 (CDC/Indochina III, W-2); assay: In vitro screening protocol I, [3H]-hypoxanthine incorporation, W2; settings: Plasmodium falciparum; In vitro screening protocol I; P. falciparum W2; read-out: IC50 W2
Excerpt: as §1, §2, §3, §4, §5

Row | Compound | IC50 [1] [µg/mL] | IC50 (P. falciparum TM91C235) [µg/mL] | IC50 [2] [µg/mL]
1 | CC[C@H]1OC(=O)[C@H](C)[C@@H](O)[C@H](C)[C@@H](O[C@@H]2O[C@H](C)C[C@H](N(C)C)[C@H]2O)[C@](C)(O)C[C@@H](C)CN(CCCNc2ccnc3ccccc23)[C@H](C)[C@@H](O)[C@]1(C)O [Example 24, 9a-[3-(Quinolin-4-yl-amino)propyl]-3-O-decladinosyl-9-deoxo-9-dihydro-9a-aza-9a-homoerythromycin A] | 0.1 to 0.2 (≈ 0.131 to 0.263 µM) | 0.2 to 1 (≈ 0.263 to 1.31 µM) | 0.1 to 0.2 (≈ 0.131 to 0.263 µM)
2 | CC[C@H]1OC(=O)[C@H](C)[C@@H](O[C@H]2C[C@@](C)(OC)[C@@H](O)[C@H](C)O2)[C@H](C)[C@@H](O[C@@H]2O[C@H](C)C[C@H](NC)[C@H]2O)[C@](C)(O)C[C@@H](C)CN(CCCNc2ccnc3ccccc23)[C@H](C)[C@@H](O)[C@]1(C)O [Example 25, 9a-[3-(Quinolin-4-yl-amino)propyl]-3′-N-demethyl-9-deoxo-9-dihydro-9a-aza-9a-homoerythromycin A] | 1 to 2.5 (≈ 1.1 to 2.76 µM) | 0.2 to 1 (≈ 0.221 to 1.1 µM) | 1 to 2.5 (≈ 1.1 to 2.76 µM)
3 | CC[C@H]1OC(=O)[C@H](C)[C@@H](O[C@H]2C[C@@](C)(OC)[C@@H](O)[C@H](C)O2)[C@H](C)[C@@H](O[C@@H]2O[C@H](C)C[C@H](N(C)C)[C@H]2O)[C@](C)(O)C[C@@H](C)CN(CCCNC(=O)CCc2ccccc2)[C@H](C)[C@@H](O)[C@]1(C)O [Example 27, 9a-{3-[(3-Phenylpropanoyl)amino]propyl}-9a-aza-9-deoxo-9-dihydro-9a-homoerythromycin A Formiate Salt] | 0.2 to 1 | < 0.1 | 0.2 to 1
4 | CC[C@H]1OC(=O)[C@H](C)[C@@H](O[C@H]2C[C@@](C)(OC)[C@@H](O)[C@H](C)O2)[C@H](C)[C@@H](O[C@@H]2O[C@H](C)C[C@H](N(C)C)[C@H]2O)[C@](C)(O)C[C@@H](C)CN(CCCNC(=O)CCCc2ccccc2)[C@H](C)[C@@H](O)[C@]1(C)O [Example 28, 9a-{3-[(4-Phenylbutanoyl)amino]propyl}-9a-aza-9-deoxo-9-dihydro-9a-homoerythromycin A Formiate Salt] | 0.2 to 1 | < 0.1 | 0.2 to 1
5 | CC[C@H]1OC(=O)[C@H](C)[C@@H](O[C@H]2C[C@@](C)(OC)[C@@H](O)[C@H](C)O2)[C@H](C)[C@@H](O[C@@H]2O[C@H](C)C[C@H](N(C)C)[C@H]2O)[C@](C)(O)C[C@@H](C)CN(CCCNC(=O)Cc2cccc3ccccc23)[C@H](C)[C@@H](O)[C@]1(C)O [Example 29, 9a-{3-[(Naphtalen-1-yl-acetyl)amino]propyl}-9a-aza-9-deoxo-9-dihydro-9a-homoerythromycin A Formiate Salt] | 0.2 to 1 | < 0.1 | 0.2 to 1
6 | CC[C@H]1OC(=O)[C@H](C)[C@@H](O[C@H]2C[C@@](C)(OC)[C@@H](O)[C@H](C)O2)[C@H](C)[C@@H](O[C@@H]2O[C@H](C)C[C@H](N(C)C)[C@H]2O)[C@](C)(O)C[C@@H](C)CN(CCCNC(=O)CCCCc2ccccc2)[C@H](C)[C@@H](O)[C@]1(C)O [Example 31, 9a-{3-[(5-Phenylpentanoyl)amino]propyl}-9a-aza-9-deoxo-9-dihydro-9a-homoerythromycin A Formiate Salt] | 0.2 to 1 | < 0.1 | 0.1 to 0.2
7 | CC[C@H]1OC(=O)[C@H](C)[C@@H](O[C@H]2C[C@@](C)(OC)[C@@H](O)[C@H](C)O2)[C@H](C)[C@@H](O[C@@H]2O[C@H](C)C[C@H](N(C)C)[C@H]2O)[C@](C)(O)C[C@@H](C)CN(CCCNC(=O)[C@H](C)c2ccc3cc(OC)ccc3c2)[C@H](C)[C@@H](O)[C@]1(C)O [Example 32, 9a-[3-({(2S)-2-[6-(methyloxy)-naphthalen-2-yl]propanoyl}amino)propyl]-9a-aza-9-deoxo-9-dihydro-9a-homoerythromycin A Formiate Salt] | 0.2 to 1 | < 0.1 | 0.1 to 0.2
8 | CC[C@H]1OC(=O)[C@H](C)[C@@H](O[C@H]2C[C@@](C)(OC)[C@@H](O)[C@H](C)O2)[C@H](C)[C@@H](O[C@@H]2O[C@H](C)C[C@H](N(C)C)[C@H]2O)[C@](C)(O)C[C@@H](C)CN(CCCNC(=O)Cc2ccc3ccccc3c2)[C@H](C)[C@@H](O)[C@]1(C)O [Example 33, 9a-{3-[(Naphtalen-2-yl-acetyl)amino]propyl}-9a-aza-9-deoxo-9-dihydro-9a-homoerythromycin A Formiate Salt] | 0.1 to 0.2 | < 0.1 | 0.2 to 1
9 | CC[C@H]1OC(=O)[C@H](C)[C@@H](O[C@H]2C[C@@](C)(OC)[C@@H](O)[C@H](C)O2)[C@H](C)[C@@H](O[C@@H]2O[C@H](C)C[C@H](N(C)C)[C@H]2O)[C@](C)(O)C[C@@H](C)CN(CCCNC(=O)c2ocnc2C)[C@H](C)[C@@H](O)[C@]1(C)O [Example 34, 9a-(3-{[(4-Methyl-1,3-oxazol-5-yl)carbonyl]amino}propyl)-9a-aza-9-deoxo-9-dihydro-9a-homoerythromycin A Formiate Salt] | 2.5 to 2.8 | 0.2 to 1 | 1 to 2.5
10 | CC[C@H]1OC(=O)[C@H](C)[C@@H](O)[C@H](C)[C@@H](O[C@@H]2O[C@H](C)C[C@H](N(C)C)[C@H]2O)[C@](C)(O)C[C@@H](C)CN(CCCNC(=O)Cc2cccc3ccccc23)[C@H](C)[C@@H](O)[C@]1(C)O [Example 36, 9a-{3-[(Naphtalen-1-yl-acetyl)amino]propyl}-3-O-decladinosyl-9a-aza-9-deoxo-9-dihydro-9a-homoerythromycin A Formiate Salt] | 1 to 2.5 | 1 to 2.5 | 1 to 2.5
11 | CC[C@H]1OC(=O)[C@H](C)[C@@H](O)[C@H](C)[C@@H](O[C@@H]2O[C@H](C)C[C@H](N(C)C)[C@H]2O)[C@](C)(O)C[C@@H](C)CN(CCCNC(=O)[C@H](C)c2ccc3cc(OC)ccc3c2)[C@H](C)[C@@H](O)[C@]1(C)O [Example 37, 9a-[3-({(2S)-2-[6-(methyloxy)-naphthalen-2-yl]propanoyl}amino)propyl]-3-O-decladinosyl-9a-aza-9-deoxo-9-dihydro-9a-homoerythromycin A Formiate Salt] | 0.2 to 1 | 0.2 to 1 | 0.2 to 1
12 | CC[C@H]1OC(=O)[C@H](C)[C@@H](O[C@H]2C[C@@](C)(OC)[C@@H](O)[C@H](C)O2)[C@H](C)[C@@H](O[C@@H]2O[C@H](C)C[C@H](N(C)C)[C@H]2O)[C@](C)(O)C[C@@H](C)CN(CCC(=O)NCc2ccccc2)[C@H](C)[C@@H](O)[C@]1(C)O [Example 38] | 0.2 to 1 (≈ 0.223 to 1.12 µM) | 0.2 to 1 (≈ 0.223 to 1.12 µM) | 0.2 to 1 (≈ 0.223 to 1.12 µM)
13 | CC[C@H]1OC(=O)[C@H](C)[C@@H](O[C@H]2C[C@@](C)(OC)[C@@H](O)[C@H](C)O2)[C@H](C)[C@@H](O[C@@H]2O[C@H](C)C[C@H](N(C)C)[C@H]2O)[C@](C)(O)C[C@@H](C)CN(CCC(=O)NCCc2ccccc2)[C@H](C)[C@@H](O)[C@]1(C)O [Example 39] | 0.2 to 1 (≈ 0.22 to 1.1 µM) | 0.2 to 1 (≈ 0.22 to 1.1 µM) | 0.2 to 1 (≈ 0.22 to 1.1 µM)
14 | CC[C@H]1OC(=O)[C@H](C)[C@@H](O[C@H]2C[C@@](C)(OC)[C@@H](O)[C@H](C)O2)[C@H](C)[C@@H](O[C@@H]2O[C@H](C)C[C@H](N(C)C)[C@H]2O)[C@](C)(O)C[C@@H](C)CN(CCC(=O)NCCCc2ccccc2)[C@H](C)[C@@H](O)[C@]1(C)O [Example 40] | 0.2 to 1 (≈ 0.216 to 1.08 µM) | 0.1 to 0.2 (≈ 0.108 to 0.216 µM) | 0.1 to 0.2 (≈ 0.108 to 0.216 µM)
